These results are taken from publication PMC9098178, “SAR of Novel 3-Arylisoquinolinones: meta-Substitution on the Aryl Ring Dramatically Enhances Antiproliferative Activity through Binding to Microtubules” (Journal of Medicinal Chemistry, 2022).

Where two headings read alike, the source gives them in different places.

One experiment concerns MCF-7. As to the kind of experiment: SRB antiproliferative assay, MCF-7. Type of experiment: cell-based, human. The procedure: Initially, the human breast cancer cell line MCF-7 was used in a prescreen analysis of the anticancer activity of 3-arylisoquinolinones. The cells were treated with serial concentrations of compounds 2–8 for 96 h prior to the assessment of proliferation using the sulforhodamine B (SRB) assay. For each compound, the concentration required to inhibit cell growth by 50% compared to that of the untreated control cells (IC50) was determined (Table 1).
(§1) All cell lines used in the study were human-derived and purchased from ATCC (Manassas, USA). Breast adenocarcinoma MCF-7 and MDA-MB-231 cell lines were cultured in DMEM. Hepatocellular carcinoma HepG2 and SNU423 cell lines were grown in MEME combined with 1% (v/v) nonessential amino acids and RPMI supplemented with 2 mM glutamine, respectively. Lung adenocarcinoma A549 and colorectal carcinoma HCT116 cells were grown in RPMI (+2 mM glutamine). All previous media were further supplemented with 10% heat-inactivated fetal bovine serum. The immortalized, normal liver THLE-3 cells were grown in BEGM (Lonza, Cat# CC-3170) onto precoated vessels according to ATCC’s instructions. Human umbilical vein endothelial cells (HUVECs) were cultured in EGM-2 (Lonza, Cat# CC-3162). All of the cells were maintained at 37 °C and 5% CO2 in a humidified incubator.
(§2) Screening of the antiproliferative activity of 3-arylisoquinolinones was performed using the SRB assay as previously described.[56] Exponentially growing HepG2, SNU423, MDA-MB-231, MCF-7, A549, HCT116, THLE-3, and HUVECs were seeded in 96-well plates at densities of 3000, 2000, 1500, 2500, 1000, 1000, 4000, and 4000 cells/well, respectively. These densities were experimentally selected so that the DMSO-treated cells (control) were approximately 80–90% confluent at the assay’s endpoint, and their optical density (OD) values fell within the assay’s linear range. After overnight incubation, the cells were treated with a range of concentrations of the respective compounds for 96 h, 24 h followed by 72 h compound-free incubation or 24 h (for HUVECs only). After treatment, cell monolayers were fixed with 10% (w/v) trichloroacetic acid for 1 h at 4 °C, washed, and dried. Then, the cells were exposed to 0.4% (w/v) SRB dye (prepared in 1% (v/v) acetic acid; Botium, Cat# 80100) for 15 min followed by several 1% acetic acid washing and then drying. Finally, the cellular protein-bound SRB was thoroughly dissolved in 10 mM Tris base, and the OD values were read at 510 nm using a plate reader (μQuant Microplate Spectrophotometer, Biotek, U.K.) coupled with Gen5 software (BioTek, U.K.). Compound-induced changes in cell growth were inferred from changes in OD values. Cell growth was calculated using the following formula: cell growth (%) = (ODtest/ODcontrol) × 100.
For orientation: In SRB staining, fixed cells bind dye roughly in proportion to their protein.

Another experiment has as its system MDA-MB-231. Briefly: SRB antiproliferative assay, MDA-MB-231. The class given is cell-based, human. The procedure: (§3) In light of this substantial change in activity between the meta and para compounds, a more comprehensive analysis of the antiproliferative activity was performed for the meta-/para-3-arylisoquinolinone pairs 2 and 3, 4, and 5, as well as 6. A panel of breast (MDA-MB-231), liver (HepG2, SNU423), lung (A549), and colon (HCT116) cancer cell lines were treated with the five 3-arylisoquinolinone analogs for 96 h followed by the SRB assay. The dose–response curves (including those for MCF-7) are presented in Figure S22, and their relevant IC50 values are listed in Table 1. […] The differential activity between meta- and para-3-arylisoquinolinones was reproduced in the National Cancer Institute (NCI) one-dose screen using a panel of 59 cancer cell lines (Figure S23).
as §1, §2

The test system of another experiment is HepG2. As to the kind of experiment: SRB antiproliferative assay, HepG2. Type of experiment: cell-based, human. The procedure: as §3, §1, §2
For another experiment, the system named is SNU423. As to the kind of experiment: SRB antiproliferative assay, SNU423. The class given is cell-based, human. The procedure:
as §3, §1
as §2, with “After overnight incubation, the cells were treated with a range of concentrations of the respective compounds for 96 h, 24 h followed by 72 h compound-free incubation or 24 h (for HUVECs only).” left out

The subject of another experiment is A549. As to the kind of experiment: SRB antiproliferative assay, A549. Type of experiment: cell-based, human. The procedure: as §3, §1, §2
The subject of the next experiment is HCT116. As to the kind of experiment: SRB antiproliferative assay, HCT116. The class given is cell-based, human. The procedure:
as §3, §1, §2

A further experiment relates to HepG2 cells. Briefly: Clonogenic assay. The class given is cell-based, human. Particulars: 14 days. The procedure:
HepG2 cells were treated with varying concentrations of 2–6 added once and kept for 14 days before counting colonies and calculating surviving fraction (Figure 2).
The ability of potential anticancer agents to prevent unlimited cell division and induce reproductive cell death was assessed using clonogenic assay as previously described.[57] In brief, HepG2 cells were seeded into six-well plates at a density of 1000 single cells/well and incubated for 10–12 h to adhere. The cells were then treated with DMSO (control) or a range of concentrations of 2–6 for 14 days. Afterward, the produced colonies were washed with phosphate-buffered saline (PBS), fixed with 70% ethanol for 20 min, and stained with 0.5% (w/v) methylene blue (prepared in 70% methanol). Following washing with water and drying, colonies (≥50 cells) were manually counted. The colony-forming efficiency (CFE) of cells was calculated by dividing the number of colonies formed by the number of cells seeded for each condition. The surviving fraction was determined by dividing the CFE of the treated cells by CFE of the control cells. A survival curve was generated by plotting the log of drug concentrations versus surviving fraction.

The next experiment has as its system THLE-3. As to the kind of experiment: SRB antiproliferative assay, normal liver cell line THLE-3. The class given is cell-based, human. Particulars: 24 h +drug/72 h –drug treatment, read-out: mean IC50 ± SEM, THLE-3. An excerpt: In the preceding experiments, the cells were continuously exposed to the compounds prior to scoring for the antiproliferative/cytotoxic effects. […] The meta compounds were also examined for the presence of differential antiproliferative activity against cancer cells over the normal liver cell line THLE-3. […] Moreover, the sensitivity of the six cancer cell lines toward compounds 2, 4, and 6 was markedly greater than that of THLE-3 cells.
All cell lines used in the study were human-derived and purchased from ATCC (Manassas, USA). Breast adenocarcinoma MCF-7 and MDA-MB-231 cell lines were cultured in DMEM. Hepatocellular carcinoma HepG2 and SNU423 cell lines were grown in MEME combined with 1% (v/v) nonessential amino acids and RPMI supplemented with 2 mM glutamine, respectively. Lung adenocarcinoma A549 and colorectal carcinoma HCT116 cells were grown in RPMI (+2 mM glutamine). […]
Screening of the antiproliferative activity of 3-arylisoquinolinones was performed using the SRB assay as previously described.[56] […] Finally, the cellular protein-bound SRB was thoroughly dissolved in 10 mM Tris base, and the OD values were read at 510 nm using a plate reader (μQuant Microplate Spectrophotometer, Biotek, U.K.) coupled with Gen5 software (BioTek, U.K.). […] Cell growth was calculated using the following formula: cell growth (%) = (ODtest/ODcontrol) × 100.

Experiment [1] has as its system panel of 59 cancer cell lines. Briefly: NCI one-dose screen. The class given is cell-based. Particulars: 10 µM, 48 h, SRB. The procedure:
as §3
Figure S23. NCI One-Dose Mean graphs for 3-arylisoquinolinones 4, 5 […]
In NCI one-dose screen, the 59 cell lines (classified into 9 groups) were exposed to 4, 5 and 7 at a single dose of 10 µM for 48 h followed by SRB assay. The one-dose data were reported as a mean graph of the growth percentage of treated cells, as relative to the cell number of both the no-drug control and the zero time (before adding the test agent). Values between 0 and 100 indicate growth inhibition, whereas values less than 0 indicate lethality. For instance, a value of 40 means 60% growth inhibition; 0, no growth throughout the experiment; -40, 40% lethality; and - 100, all cells are dead.1
A) One-dose mean graph for 3-arylisoquinolinone 4 (NSC number 795055)

Another experiment has as its system purified bovine tubulin. As to the kind of experiment: Cell-free tubulin polymerization assay. The class given is biochemical. Particulars: 10 μM, compared to DMSO control. An excerpt: Experimentally, the direct interaction of 4 with tubulin was investigated in a cell-free system using a tubulin polymerization assay. […] In control samples, α- and β-tubulin subunits were able to heterodimerize and assemble into microtubules in a time-dependent manner as indicated by increasing absorbance values over time. […] This indicates the incidence of fast polymerization associated with the formation of a denser microtubule mass. […] It is worth mentioning that microtubule dynamics can be potently altered by microtubule-stabilizing or -destabilizing compounds at doses 10- to 100-fold lower than those required for increasing or decreasing the microtubule polymer mass.[31]
The cell-free tubulin polymerization experiment was performed using the Tubulin Polymerization Assay Kit according to the manufacturer’s instructions (Millipore, Cat# 17-10194). The light absorbed by microtubules, which were formed upon tubulin polymerization, is directly proportional to the polymer mass. […] Immediately, the plate was placed in a 37 °C-prewarmed plate reader (BMG LABTECH FLUOstar Omega, Germany) and the absorbance was measured at 1 min intervals for 60 min at a wavelength of 350 nm. The delta absorbance (ΔA) was calculated by subtracting the absorbance values of zero time from those of the subsequent time points and then plotted versus time.

On the set-up of experiment [2]: method as in PMID 21127197. Particulars: after compound washout; cited from earlier work.
Where [3] appears, read: 96 h treatment, mean ± SEM, read-out: IC50 MCF-7 (prescreen).

Consider `COc1ccc(-c2cc3cc(F)ccc3c(=O)[nH]2)cc1` [compound 3, 6-Fluoro-3-(4-methoxyphenyl)isoquinolin-1(2H)-one], for which the half-inhibitory concentration (IC50) was over 50 µM in the experiment with MCF-7 (Homo sapiens, MCF7, 96 h treatment, mean ± SEM, read-out: IC50 MCF-7 (prescreen)); over 50 µM in the experiment on MDA-MB-231 (Homo sapiens, MDA-MB-231, 96 h treatment, mean ± SEM, read-out: IC50 MDA-MB-231); over 50 µM in the experiment with HepG2 (Homo sapiens, HepG2, 96 h treatment, mean ± SEM, read-out: IC50 HepG2); over 50 µM in the experiment on SNU423 (Homo sapiens, SNU-423, 96 h treatment, mean ± SEM, read-out: IC50 SNU423); over 50 µM with A549 (Homo sapiens, A549, 96 h treatment, mean ± SEM, read-out: IC50 A549); over 50 µM in the experiment with HCT116 (Homo sapiens, HCT-116, 96 h treatment, mean ± SEM, read-out: IC50 HCT116). For the same compound, in the experiment on HepG2 cells (concentrations as high as 20 μM), the surviving fraction is 0.5.

In the case of `COc1cccc(-c2cc3ccc(F)cc3c(=O)[nH]2)c1` [compound 6], the IC50 in the experiment with MCF-7 (24 h +drug/72 h –drug treatment, read-out: mean IC50 ± SEM, MCF-7) turned out to be 1.6 ± 0.4 µM; with MCF-7 (setting [3]), 0.68 ± 0.13 µM; in the experiment on MDA-MB-231 (24 h +drug/72 h –drug treatment, read-out: mean IC50 ± SEM, MDA-MB-231), 0.22 ± 0.02 µM; with MDA-MB-231 (96 h treatment, mean ± SEM, read-out: IC50 MDA-MB-231), 0.21 ± 0.05 µM; in the experiment with HepG2 (24 h +drug/72 h –drug treatment, read-out: mean IC50 ± SEM, HepG2), 1.4 ± 0.06 µM; with HepG2 (96 h treatment, mean ± SEM, read-out: IC50 HepG2), 3.03 ± 0.61 µM. The IC50 worked out at 0.68 ± 0.09 µM in the experiment on SNU423 (24 h +drug/72 h –drug treatment, read-out: mean IC50 ± SEM, SNU423); 0.6 ± 0.06 µM with SNU423 (96 h treatment, mean ± SEM, read-out: IC50 SNU423); 0.47 ± 0.03 µM in the experiment on A549 (24 h +drug/72 h –drug treatment, read-out: mean IC50 ± SEM, A549); 0.38 ± 0.02 µM in the experiment on A549 (96 h treatment, mean ± SEM, read-out: IC50 A549); 0.21 ± 0.01 µM in the experiment with HCT116 (24 h +drug/72 h –drug treatment, read-out: mean IC50 ± SEM, HCT116); 0.19 ± 0.01 µM in the experiment on HCT116 (96 h treatment, mean ± SEM, read-out: IC50 HCT116). Moreover, the IC50 in the experiment on THLE-3 is over 25 µM. Further, in the experiment on HepG2 cells (0.5 or 1 μM), the colony formation entry is on record as “No colonies were apparent”.

On to “7-Fluoro-3-(4-methoxyphenyl)isoquinolin-1(2H)-one [compound 7]”, for which, in the experiment with MCF-7 (setting [3]), the IC50 is over 50 µM. Further, in experiment [1], the “inhibition of growth in NCI one-dose screen” value is “less active”.

As to `CC(=O)O[C@H]1C(=O)[C@@]2(C)[C@H]([C@H](OC(=O)c3ccccc3)[C@]3(O)C[C@H](OC(=O)[C@H](O)[C@@H](NC(=O)c4ccccc4)c4ccccc4)C(C)=C1C3(C)C)[C@]1(OC(C)=O)CO[C@@H]1C[C@@H]2O` [paclitaxel, reference compound], the “effect on tubulin polymerization (polymerizing control)” value in the experiment on purified bovine tubulin is on record as “higher absorbance values briefly after the onset of the polymerization process”.

As for `CN[C@H]1CCc2cc(OC)c(OC)c(OC)c2-c2ccc(OC)c(=O)cc21` [colcemid], the “reversibility of mitotic blockade” value in experiment [2] is given as “highly reversible”.

In the case of `COC(=O)Nc1nc2cc(C(=O)c3cccs3)ccc2[nH]1` [nocodazole], in [2], the “reversibility of mitotic blockade” value is recorded as “highly reversible”.

Take `COc1cc2c(c(OC)c1OC)-c1ccc(OC)c(=O)cc1[C@@H](NC(C)=O)CC2` [colchicine]: the “reversibility of mitotic blockade” value in experiment [2] is “irreversible”.

On to `CC[C@]1(O)C[C@H]2CN(CCc3c([nH]c4ccccc34)[C@@](C(=O)OC)(c3cc4c(cc3OC)N(C=O)[C@H]3[C@@](O)(C(=O)OC)[C@H](OC(C)=O)[C@]5(CC)C=CCN6CC[C@]43[C@@H]65)C2)C1` [vincristine], for which the “reversibility of mitotic blockade” value in experiment [2] is “irreversible”.

As a reminder, the IC50 is the midpoint of a concentration-inhibition curve.
